Assays:
Type in all cases: cell-based
PopeOR1 = biological target: T1, PopeOR1 (Phthorimaea operculella, UniProt A0A8K1YT58); assay: two-electrode voltage clamp in Xenopus oocytes
T1 construct: full-length ORF, co-expressed with PopeOrco in Xenopus oocytes; with PopeOrco
T1 sequence (A0A8K1YT58 1-435): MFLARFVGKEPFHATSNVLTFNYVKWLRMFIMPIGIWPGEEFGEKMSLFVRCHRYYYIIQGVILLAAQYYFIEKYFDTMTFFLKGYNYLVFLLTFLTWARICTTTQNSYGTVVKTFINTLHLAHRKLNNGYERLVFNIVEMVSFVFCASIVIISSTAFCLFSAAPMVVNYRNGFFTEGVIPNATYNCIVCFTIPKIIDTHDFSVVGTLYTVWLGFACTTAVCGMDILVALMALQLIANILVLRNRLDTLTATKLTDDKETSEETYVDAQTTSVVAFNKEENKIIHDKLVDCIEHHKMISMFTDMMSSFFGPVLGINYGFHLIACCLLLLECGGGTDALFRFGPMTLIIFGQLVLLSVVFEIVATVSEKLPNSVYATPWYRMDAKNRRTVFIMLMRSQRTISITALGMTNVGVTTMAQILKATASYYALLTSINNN
T1 sequence (A0A8K1YT59 1-473 partner): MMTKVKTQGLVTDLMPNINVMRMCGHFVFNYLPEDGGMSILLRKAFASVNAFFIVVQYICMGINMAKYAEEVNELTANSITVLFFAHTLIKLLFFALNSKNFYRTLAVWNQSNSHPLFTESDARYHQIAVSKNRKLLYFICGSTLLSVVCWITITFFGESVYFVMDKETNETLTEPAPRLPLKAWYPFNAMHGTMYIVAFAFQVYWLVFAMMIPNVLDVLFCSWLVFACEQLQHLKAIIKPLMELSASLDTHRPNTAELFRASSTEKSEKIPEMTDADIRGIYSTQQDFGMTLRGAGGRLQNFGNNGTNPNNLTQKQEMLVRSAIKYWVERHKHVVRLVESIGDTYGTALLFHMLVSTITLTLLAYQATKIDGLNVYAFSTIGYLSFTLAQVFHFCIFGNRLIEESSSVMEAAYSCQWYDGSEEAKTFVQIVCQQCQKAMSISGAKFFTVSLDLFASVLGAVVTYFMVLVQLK

PopeOR3 [1] = biological target: T2, PopeOR3 (Phthorimaea operculella, UniProt A0A8K1YT60); assay: two-electrode voltage clamp in Xenopus oocytes, weak current at […]
T2 construct: full-length ORF, co-expressed with PopeOrco in Xenopus oocytes; with PopeOrco
T2 sequence (A0A8K1YT60 1-404): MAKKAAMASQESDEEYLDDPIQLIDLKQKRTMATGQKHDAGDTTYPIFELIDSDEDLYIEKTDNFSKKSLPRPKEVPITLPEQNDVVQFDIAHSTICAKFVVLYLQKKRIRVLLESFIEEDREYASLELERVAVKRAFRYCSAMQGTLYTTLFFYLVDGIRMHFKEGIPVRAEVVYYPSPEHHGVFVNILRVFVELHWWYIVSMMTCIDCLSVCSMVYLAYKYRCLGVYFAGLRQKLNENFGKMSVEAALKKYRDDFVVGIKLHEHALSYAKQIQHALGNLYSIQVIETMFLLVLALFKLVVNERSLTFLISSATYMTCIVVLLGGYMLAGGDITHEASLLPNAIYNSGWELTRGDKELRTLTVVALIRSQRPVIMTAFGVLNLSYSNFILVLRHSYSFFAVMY
T2 sequence (A0A8K1YT59 1-473 partner): T1 sequence (A0A8K1YT59 1-473 partner)

PopeOR3 [2] = biological target: T2, PopeOR3; assay: two-electrode voltage clamp in Xenopus oocytes

SMILES | EC50 (PopeOR1) | two-electrode voltage clamp in Xenopus oocytes, weak current at 10^-4 M (PopeOR3 [1]) | EC50 (PopeOR3 [2])
CCCCC/C=C\C/C=C/CCCOC(C)=O [(E, Z)-4,7–13: OAc, trans-4, cis-7-tridecadienyl acetate] | 73 µM | 29.41 ± 6.87 nA | –
CC/C=C\C/C=C\C/C=C/CCCOC(C)=O [(E, Z, Z)-4,7,10–13: OAc, tran-4, cis-7, cis-10-tridecatrienyl acetate] | 39 µM | – | 89 µM

From paper PMC7868389, “Identification and Functional Characterization of Two Putative Pheromone Receptors in the Potato Tuber Moth, Phthorimaea operculella” (Frontiers in Physiology, 2021)
